The source made the active and inactive calls.
Assays:
[1] = biological target: Cytochrome P450 2C19 (Homo sapiens, UniProt P33261); test: Cytochrome panel assay with activity outcomes. Panel member name: p450-cyp2c19 Compounds with AC50 equal or less than 10 uM are considered active; format: functional
[2] = biological target: Cytochrome P450 2D6 (Homo sapiens, UniProt P10635);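 note: CYP2D6 member of a cytochrome P450 panel assay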
[3] = biological target: Beta-galactosidase (Escherichia coli, UniProt Q8VNN2); test: beta-galactosidase enzyme inhibitors and activators, dose response, artefact control for CCR6 antagonist project, biochemical, E. coli enzyme, set 3 (AID 504712); format: functional
Chain of Beta-galactosidase (Q8VNN2 whole entry): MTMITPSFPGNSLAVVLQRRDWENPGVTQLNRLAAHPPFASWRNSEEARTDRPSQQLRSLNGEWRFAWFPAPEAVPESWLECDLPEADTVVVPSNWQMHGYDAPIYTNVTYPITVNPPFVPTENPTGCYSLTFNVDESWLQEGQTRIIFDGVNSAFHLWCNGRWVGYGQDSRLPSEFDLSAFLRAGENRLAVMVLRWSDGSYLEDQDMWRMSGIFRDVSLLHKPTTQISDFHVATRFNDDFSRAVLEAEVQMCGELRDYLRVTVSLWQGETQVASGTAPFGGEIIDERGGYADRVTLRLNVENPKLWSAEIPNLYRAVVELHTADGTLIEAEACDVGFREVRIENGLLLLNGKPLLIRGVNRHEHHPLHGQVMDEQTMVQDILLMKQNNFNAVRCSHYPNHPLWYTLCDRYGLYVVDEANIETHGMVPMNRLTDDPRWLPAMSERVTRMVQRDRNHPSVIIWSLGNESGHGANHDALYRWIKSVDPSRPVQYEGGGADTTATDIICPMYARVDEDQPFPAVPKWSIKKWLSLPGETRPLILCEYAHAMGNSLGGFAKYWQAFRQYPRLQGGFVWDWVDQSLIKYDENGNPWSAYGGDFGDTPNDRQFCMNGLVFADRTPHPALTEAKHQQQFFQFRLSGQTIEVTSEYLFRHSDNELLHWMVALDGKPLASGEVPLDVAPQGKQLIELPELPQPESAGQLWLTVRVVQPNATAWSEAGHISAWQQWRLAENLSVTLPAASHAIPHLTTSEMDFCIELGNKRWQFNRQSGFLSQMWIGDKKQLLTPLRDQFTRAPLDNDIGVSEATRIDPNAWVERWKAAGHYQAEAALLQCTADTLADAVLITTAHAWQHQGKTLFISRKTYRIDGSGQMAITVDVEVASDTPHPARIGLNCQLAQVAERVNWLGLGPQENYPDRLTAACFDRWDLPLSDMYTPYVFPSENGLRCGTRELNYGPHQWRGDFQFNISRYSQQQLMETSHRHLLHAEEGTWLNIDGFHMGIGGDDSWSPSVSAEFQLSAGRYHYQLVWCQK

[4] = tested on: Streptococcus sp. 'group A'; test: growth inhibition of control SK(-) GAS strain, dose response, counter-screen for streptokinase expression inhibitor project, luminescence, kanamycin, BacTiterGlo, confirmation (AID 1900); format: functional, organism-based
[5] = biological target: T1, Streptokinase A (Streptococcus pyogenes serotype M1, UniProt P10520); test: S. pyogenes streptokinase expression inhibitors, potency, dose response, plasminogen activation absorbance, OD405 (AID 1914); format: functional, Streptococcus pyogenes M1 GAS;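 note: secreted streptokinase activity via plasminogen activation per viability signal from cell pellet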
T1 sequence (P10520 whole entry): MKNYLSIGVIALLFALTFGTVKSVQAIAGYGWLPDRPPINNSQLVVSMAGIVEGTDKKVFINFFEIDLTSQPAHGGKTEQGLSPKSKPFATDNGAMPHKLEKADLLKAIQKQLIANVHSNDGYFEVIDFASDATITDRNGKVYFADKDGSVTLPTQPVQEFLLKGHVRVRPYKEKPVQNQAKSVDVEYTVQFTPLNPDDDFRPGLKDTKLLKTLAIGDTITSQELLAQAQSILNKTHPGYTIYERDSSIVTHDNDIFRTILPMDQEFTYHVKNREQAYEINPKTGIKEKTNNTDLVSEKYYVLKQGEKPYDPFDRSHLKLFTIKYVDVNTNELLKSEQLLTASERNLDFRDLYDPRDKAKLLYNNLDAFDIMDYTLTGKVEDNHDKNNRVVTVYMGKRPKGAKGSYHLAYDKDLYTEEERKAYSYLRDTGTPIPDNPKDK

[6] = tested on: Streptococcus; test: Group A Streptococcus viability loss, dose response, counter-screen for streptokinase expression inhibitor project, luminescence, BacTiterGlo (AID 1915); format: functional, organism-based;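 note: potency for reduction of bacterial viability or growth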
[7] = biological target: Voltage-dependent T-type calcium channel subunit alpha-1H (Homo sapiens, UniProt O95180); format: functional;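 note: channel activity triggered by adding a high calcium stimulation buffer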
Chain of Voltage-dependent T-type calcium channel subunit alpha-1H (O95180 whole entry): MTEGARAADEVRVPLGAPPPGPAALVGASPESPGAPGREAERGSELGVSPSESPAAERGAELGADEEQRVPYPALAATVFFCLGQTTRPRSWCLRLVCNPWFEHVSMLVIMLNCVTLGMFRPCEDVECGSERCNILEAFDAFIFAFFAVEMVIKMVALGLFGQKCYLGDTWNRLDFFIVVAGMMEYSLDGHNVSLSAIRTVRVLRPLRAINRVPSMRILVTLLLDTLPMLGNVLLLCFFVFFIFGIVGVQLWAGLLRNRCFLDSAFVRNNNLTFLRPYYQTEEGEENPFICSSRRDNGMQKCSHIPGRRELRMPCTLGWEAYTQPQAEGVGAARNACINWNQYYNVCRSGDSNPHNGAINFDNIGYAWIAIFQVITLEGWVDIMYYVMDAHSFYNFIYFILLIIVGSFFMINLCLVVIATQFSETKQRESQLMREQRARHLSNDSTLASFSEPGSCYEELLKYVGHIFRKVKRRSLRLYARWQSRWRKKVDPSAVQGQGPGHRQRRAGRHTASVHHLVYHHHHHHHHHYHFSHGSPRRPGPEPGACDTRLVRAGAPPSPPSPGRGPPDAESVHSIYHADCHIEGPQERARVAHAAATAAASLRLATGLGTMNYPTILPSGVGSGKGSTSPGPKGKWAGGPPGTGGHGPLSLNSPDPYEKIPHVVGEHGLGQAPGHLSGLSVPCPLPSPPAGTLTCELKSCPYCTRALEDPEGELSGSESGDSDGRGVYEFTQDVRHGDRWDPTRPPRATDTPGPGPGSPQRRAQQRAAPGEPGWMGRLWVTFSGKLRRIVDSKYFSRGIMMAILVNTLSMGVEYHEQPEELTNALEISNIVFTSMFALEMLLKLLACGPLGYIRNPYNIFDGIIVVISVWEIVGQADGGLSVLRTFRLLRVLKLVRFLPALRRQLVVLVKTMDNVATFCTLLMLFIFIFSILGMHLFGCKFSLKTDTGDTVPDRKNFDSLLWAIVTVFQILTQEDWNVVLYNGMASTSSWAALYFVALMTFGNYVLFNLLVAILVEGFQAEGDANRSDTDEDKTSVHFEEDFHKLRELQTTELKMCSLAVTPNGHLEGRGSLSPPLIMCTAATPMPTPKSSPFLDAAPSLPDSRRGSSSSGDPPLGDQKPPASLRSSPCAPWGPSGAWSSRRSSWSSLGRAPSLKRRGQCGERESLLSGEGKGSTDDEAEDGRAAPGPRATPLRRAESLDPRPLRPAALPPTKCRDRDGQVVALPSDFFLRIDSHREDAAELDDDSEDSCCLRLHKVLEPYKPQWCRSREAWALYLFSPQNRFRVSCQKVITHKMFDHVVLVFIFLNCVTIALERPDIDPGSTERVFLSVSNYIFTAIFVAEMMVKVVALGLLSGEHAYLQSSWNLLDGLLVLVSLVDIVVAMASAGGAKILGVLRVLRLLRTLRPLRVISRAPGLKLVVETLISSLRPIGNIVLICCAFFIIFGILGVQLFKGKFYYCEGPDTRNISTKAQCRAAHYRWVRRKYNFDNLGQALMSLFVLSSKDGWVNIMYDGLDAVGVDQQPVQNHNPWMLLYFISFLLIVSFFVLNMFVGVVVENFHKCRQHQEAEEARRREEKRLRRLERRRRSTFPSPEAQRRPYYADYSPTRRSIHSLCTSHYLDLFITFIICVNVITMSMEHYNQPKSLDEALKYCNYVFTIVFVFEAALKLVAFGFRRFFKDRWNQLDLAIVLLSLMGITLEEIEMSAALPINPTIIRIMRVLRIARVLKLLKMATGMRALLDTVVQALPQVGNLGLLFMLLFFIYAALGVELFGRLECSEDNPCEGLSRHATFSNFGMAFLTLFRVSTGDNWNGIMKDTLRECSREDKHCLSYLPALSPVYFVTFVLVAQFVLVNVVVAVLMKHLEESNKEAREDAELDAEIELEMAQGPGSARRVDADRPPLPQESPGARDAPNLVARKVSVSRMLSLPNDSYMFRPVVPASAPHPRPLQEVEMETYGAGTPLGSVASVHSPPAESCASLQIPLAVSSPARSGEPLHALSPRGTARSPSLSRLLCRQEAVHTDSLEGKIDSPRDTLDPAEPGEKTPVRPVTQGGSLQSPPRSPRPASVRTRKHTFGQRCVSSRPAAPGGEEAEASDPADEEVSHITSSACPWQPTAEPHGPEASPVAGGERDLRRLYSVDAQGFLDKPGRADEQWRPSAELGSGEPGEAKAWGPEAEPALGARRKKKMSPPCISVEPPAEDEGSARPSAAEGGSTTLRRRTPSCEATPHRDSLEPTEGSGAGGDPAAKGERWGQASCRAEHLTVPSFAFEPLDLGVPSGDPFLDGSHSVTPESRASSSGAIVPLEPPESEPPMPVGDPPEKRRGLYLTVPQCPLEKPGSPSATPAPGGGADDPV

[8] = tested on: Vero; test: cells; format: functional, cell-based; conditions: Chlorocebus sabaeus
[9] = tested on: Vero; test: cells; format: functional; conditions: Chlorocebus sabaeus
[10] = biological target: T2, Carboxy-terminal domain RNA polymerase II polypeptide A small phosphatase 1 (Homo sapiens, UniProt Q9GZU7); test: inhibitors of CTDSP1, concentration-response testing, biochemical assay, absorbance-based, actives from ultra-high-throughput screening (AID 540297); format: functional
T2 sequence (Q9GZU7 whole entry): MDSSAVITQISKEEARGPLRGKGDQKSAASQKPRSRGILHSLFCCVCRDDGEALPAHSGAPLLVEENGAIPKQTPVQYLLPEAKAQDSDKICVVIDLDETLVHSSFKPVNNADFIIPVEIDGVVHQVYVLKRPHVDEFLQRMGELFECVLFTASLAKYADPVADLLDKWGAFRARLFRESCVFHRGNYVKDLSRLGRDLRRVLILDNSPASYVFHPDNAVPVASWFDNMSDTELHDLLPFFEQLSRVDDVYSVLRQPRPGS

[11] = biological target: T3, Low molecular weight phosphotyrosine protein phosphatase (Homo sapiens, UniProt P24666); format: functional; conditions: read-out: IC50_Mean;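 note: Dose-response confirmation assay measuring inhibition of LMPTP enzyme activity by fluorescence intensity read-out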
T3 sequence (P24666 whole entry): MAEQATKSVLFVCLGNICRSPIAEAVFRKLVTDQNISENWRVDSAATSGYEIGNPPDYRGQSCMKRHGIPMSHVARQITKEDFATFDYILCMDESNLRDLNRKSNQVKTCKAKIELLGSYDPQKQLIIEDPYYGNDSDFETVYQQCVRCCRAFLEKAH

[12] = biological target: T4, Cytochrome P450 1A2 (Homo sapiens, UniProt P05177)
T4 sequence (P05177 whole entry): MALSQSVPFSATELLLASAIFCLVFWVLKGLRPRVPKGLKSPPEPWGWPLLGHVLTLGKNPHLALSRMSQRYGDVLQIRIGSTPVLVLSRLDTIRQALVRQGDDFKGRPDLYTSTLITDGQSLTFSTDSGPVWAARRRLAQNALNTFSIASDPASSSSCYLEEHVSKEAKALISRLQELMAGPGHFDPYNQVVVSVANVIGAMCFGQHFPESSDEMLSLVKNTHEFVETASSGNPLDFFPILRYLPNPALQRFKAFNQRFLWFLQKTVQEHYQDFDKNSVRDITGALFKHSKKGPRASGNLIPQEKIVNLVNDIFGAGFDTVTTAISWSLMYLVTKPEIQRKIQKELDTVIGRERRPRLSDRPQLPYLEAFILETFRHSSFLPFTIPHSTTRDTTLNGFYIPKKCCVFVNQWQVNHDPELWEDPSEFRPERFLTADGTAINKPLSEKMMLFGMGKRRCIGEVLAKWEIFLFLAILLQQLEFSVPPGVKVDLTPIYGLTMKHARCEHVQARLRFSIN

[13] = biological target: Melanocortin receptor 4 (Homo sapiens, UniProt P32245); format: functional, cell-based;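 note: Cell-based assay with luminescence read-out, confirmatory dose-response testing for agonist activity of biased ligands at MC4R; human U2OS cells with tagged receptor and beta-arrestin; potency of agonists that increase receptor coupling to beta-arrestin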
Chain of Melanocortin receptor 4 (P32245 whole entry): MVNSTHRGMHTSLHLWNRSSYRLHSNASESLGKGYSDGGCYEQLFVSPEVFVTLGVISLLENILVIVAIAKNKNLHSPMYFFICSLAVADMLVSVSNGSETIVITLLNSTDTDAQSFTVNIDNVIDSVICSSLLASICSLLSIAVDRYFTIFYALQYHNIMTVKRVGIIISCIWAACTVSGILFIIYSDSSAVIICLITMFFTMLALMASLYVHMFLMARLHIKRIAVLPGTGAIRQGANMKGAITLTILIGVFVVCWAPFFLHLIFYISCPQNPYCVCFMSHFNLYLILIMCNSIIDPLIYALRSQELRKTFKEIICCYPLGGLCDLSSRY

[14] = tested on: H9c2; test: cells; format: functional, cell-based; conditions: Rattus norvegicus, H9c2, Myocardium;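 note: confirmatory concentration-response retest of ultra-high-throughput screening hits for modulation of myocardial damage; cell death induced by hydrogen peroxide oxidative stress; compound pretreatment for 60 min then peroxide exposure for 2 h; potency is for protecting the cells against peroxide damage rather than for killing them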
[15] = inhibitors of intracellular T. cruzi replication, confirmation, NIH3T3 host cells, beta-gal luminescence (AID 2044); format: functional, cell-based;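 note: intracellular parasites grown in NIH/3T3 mouse fibroblasts as host cells; luminescent beta-galactosidase reporter signal from transgenic T. cruzi replicating inside host cells; inhibitors lower the luminescence signal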
[16] = cytotoxicity toward NIH3T3 fibroblasts, dose response, counter-screen, cell-based, ATP luminescence, mouse fibroblasts (AID 2010); format: functional;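 note: cells exposed to compound for about 90 hours before reading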
[17] = biological target: T5, Ubiquitin-conjugating enzyme E2 N (Homo sapiens, UniProt P61088); format: functional;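 note: Dose-response confirmation in a TR-FRET assay detecting UBC13-driven polyubiquitin chain formation, inhibition measured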
T5 sequence (P61088 whole entry): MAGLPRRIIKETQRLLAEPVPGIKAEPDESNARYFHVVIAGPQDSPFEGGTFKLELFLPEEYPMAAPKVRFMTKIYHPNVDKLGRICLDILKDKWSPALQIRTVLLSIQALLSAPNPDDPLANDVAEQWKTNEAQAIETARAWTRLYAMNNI

[18] = Luminescence Cell-Based Dose Retest to Confirm Inhibitors of Cancer Stem Cells. [Related pubchem assays (depositor defined):AID2717, AID2721]; format: functional; conditions: Homo sapiens
[19] = biological target: T6, Heat shock factor protein 1 (Mus musculus, UniProt P38532); test: HSF1 potentiators in luciferase reporter cells, confirmation, cell-based, NIH3T3, luminescence, dose retest (AID 435004); format: functional;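 note: stress induced by proteasome inhibitor MG132 added 30 min after compound; luciferase reporter driven by HSF1 response element in NIH3T3 cells; actives raise luminescence as potentiators of the MG132 stress response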
T6 sequence (P38532 whole entry): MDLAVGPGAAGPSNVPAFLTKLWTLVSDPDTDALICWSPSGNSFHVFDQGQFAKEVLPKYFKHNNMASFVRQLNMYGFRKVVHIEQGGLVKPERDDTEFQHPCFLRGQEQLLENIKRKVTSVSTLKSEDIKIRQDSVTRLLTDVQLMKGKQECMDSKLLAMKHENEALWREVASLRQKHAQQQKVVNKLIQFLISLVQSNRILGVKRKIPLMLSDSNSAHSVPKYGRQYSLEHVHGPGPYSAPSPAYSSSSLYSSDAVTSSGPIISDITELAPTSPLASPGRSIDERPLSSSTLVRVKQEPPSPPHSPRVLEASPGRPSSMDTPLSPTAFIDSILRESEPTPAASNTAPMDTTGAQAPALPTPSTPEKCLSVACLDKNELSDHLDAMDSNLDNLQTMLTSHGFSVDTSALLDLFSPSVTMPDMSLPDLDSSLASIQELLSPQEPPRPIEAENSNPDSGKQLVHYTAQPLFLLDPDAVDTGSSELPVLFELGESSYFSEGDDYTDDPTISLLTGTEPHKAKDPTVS

[20] = cytotoxicity in HEK-293T cells, dose response, cytotoxicity control for TCR NF-kB inhibitor project, luminescence, T-cell screen hits (AID 489026); format: functional, cell-based;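 note: cells exposed to compound about 14 hours before the viability readout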
[21] = biological target: Paired box protein Pax-8 (Homo sapiens, UniProt Q06710); test: inhibitors of PAX8-driven TPO luciferase reporter, dose response, RMG-I cells, cherry-pick (AID 687027); format: functional, cell-based;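 note: luciferase reporter driven by Pax8 target thyroperoxidase promoter measured by SteadyGlo luminescence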
[22] = HEp-2 cell cytotoxicity, dose response, cytotoxicity control for RSV inhibitor project, HTS (AID 2410); format: functional; conditions: human respiratory syncytial virus
[23] = biological target: T7, Rac GTPase-activating protein 1 (Homo sapiens, UniProt Q9H0H5); test: MgcRacGAP GTPase-activating activity inhibitors, confirmation, biochemical, ADP Hunter fluorescence, primary and confirmatory (AID 624330); format: functional
T7 sequence (Q9H0H5 whole entry): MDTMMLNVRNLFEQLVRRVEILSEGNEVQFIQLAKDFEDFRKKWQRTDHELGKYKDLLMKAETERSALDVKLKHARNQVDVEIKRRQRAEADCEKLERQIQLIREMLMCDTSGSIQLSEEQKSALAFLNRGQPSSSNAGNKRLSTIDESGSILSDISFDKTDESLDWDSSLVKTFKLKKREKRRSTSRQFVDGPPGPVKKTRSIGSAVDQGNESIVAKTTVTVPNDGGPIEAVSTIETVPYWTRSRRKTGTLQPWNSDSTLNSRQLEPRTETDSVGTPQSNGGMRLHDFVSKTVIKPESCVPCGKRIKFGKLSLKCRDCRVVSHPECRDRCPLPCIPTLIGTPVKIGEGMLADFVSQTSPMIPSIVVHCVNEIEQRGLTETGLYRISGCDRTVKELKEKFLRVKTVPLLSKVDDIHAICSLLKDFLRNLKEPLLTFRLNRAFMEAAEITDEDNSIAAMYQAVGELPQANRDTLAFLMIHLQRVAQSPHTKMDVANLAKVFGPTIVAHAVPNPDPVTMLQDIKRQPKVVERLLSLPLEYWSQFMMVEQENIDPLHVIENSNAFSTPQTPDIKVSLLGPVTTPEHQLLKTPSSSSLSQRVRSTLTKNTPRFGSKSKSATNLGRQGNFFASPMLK

[24] = biological target: Cytochrome P450 3A4 (Homo sapiens, UniProt P08684); conditions: Potency;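 note: confirmatory qHTS run detecting inhibitors and substrates of CYP3A4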
Chain of Cytochrome P450 3A4 (P08684 whole entry): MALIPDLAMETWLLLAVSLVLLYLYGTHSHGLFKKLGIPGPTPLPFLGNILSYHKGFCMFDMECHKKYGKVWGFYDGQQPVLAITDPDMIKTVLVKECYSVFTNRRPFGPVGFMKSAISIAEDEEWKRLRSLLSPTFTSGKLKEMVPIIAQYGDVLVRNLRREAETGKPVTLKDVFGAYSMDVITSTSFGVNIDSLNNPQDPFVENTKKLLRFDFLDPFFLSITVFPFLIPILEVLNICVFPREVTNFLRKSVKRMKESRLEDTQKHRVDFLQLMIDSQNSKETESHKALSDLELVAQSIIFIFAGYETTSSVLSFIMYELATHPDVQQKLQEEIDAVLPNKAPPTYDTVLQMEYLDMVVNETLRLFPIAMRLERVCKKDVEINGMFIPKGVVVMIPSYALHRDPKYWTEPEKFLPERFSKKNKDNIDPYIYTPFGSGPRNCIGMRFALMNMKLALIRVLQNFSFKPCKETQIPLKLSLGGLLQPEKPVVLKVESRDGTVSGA

Chain of Cytochrome P450 2D6 (P10635 whole entry): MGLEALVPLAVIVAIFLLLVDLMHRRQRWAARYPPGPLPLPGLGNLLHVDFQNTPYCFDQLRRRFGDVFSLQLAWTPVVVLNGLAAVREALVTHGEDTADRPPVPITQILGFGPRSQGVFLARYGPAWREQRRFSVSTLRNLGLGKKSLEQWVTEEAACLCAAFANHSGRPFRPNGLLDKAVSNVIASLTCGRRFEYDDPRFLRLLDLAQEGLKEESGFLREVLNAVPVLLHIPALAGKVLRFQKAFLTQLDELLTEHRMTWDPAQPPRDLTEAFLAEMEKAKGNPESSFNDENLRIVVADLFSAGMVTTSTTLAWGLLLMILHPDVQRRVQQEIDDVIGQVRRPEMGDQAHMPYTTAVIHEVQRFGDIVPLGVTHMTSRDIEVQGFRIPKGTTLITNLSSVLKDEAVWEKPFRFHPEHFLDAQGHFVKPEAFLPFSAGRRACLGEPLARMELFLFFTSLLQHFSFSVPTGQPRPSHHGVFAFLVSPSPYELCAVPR

Structure (SMILES): Cc1c(Cl)c(S(N)(=O)=O)cc(S(N)(=O)=O)c1NC(=O)c1ccc(Cl)cc1
- AC50 [1]: inconclusive
- AC50 [2]: inconclusive

Structure (SMILES): CC(=O)N1c2ccc(S(=O)(=O)N3CCCC(C(=O)Nc4cccc(Cl)c4)C3)cc2CC1C (stereo not given)
- IC50 [3]: > 66.6 µM (inactive)

Structure (SMILES): Cc1ccc2nc(N3C(=O)CNC3=S)sc2c1
- EC50 [4]: 4.9 µM (active)
- EC50 [5]: > 150 µM (not active)
- EC50 [6]: 11.2 µM (active)
- IC50 [3]: > 66.6 µM (inactive)

Structure (SMILES): O=S(=O)(NCCc1csc(-c2ccccc2)n1)c1ccc2c(c1)OCCO2
- EC50 [7]: 23.2 µM (active)

Structure (SMILES): COc1ccc(/C=C2\SC(=S)N(CCC(=O)NCCc3ccc(O)cc3)C2=O)cc1
- IC50 [8]: > 25 µM (active)
- CC50 [9]: > 25 µM (active)

Structure (SMILES): COC(=O)COc1ccc2oc(=O)cc(-c3cc4cccc(OC)c4o3)c2c1
- IC50 [10]: 9.43 µM (active)
- IC50 [11]: 19.1 µM (active)

Structure (SMILES): Fc1ccc(Cn2nnnc2C(c2ccc(Cl)cc2)N2CCSCC2)cc1 (stereo not given)
- EC50 [7]: 9.78 µM (active)

Structure (SMILES): COc1ccc(CCn2c(=N)c(C(=O)NCc3ccco3)cc3c(=O)n4ccccc4nc32)cc1
- IC50 [11]: 25.7 µM (inactive)
- AC50 [12]: 15.8 µM (inconclusive)

Structure (SMILES): O=C(O)[C@@H](c1ccccc1)[C@@H](C(=O)O)c1ccccc1
- AC50 [2]: inconclusive

Structure (SMILES): CO[C@@H]1COC(=O)CC=C[C@@H](C)[C@@H]2C=C[C@H](O)[C@@H](COC(=O)[C@H](C)NC(=O)CC=C[C@H]1C)O2
- AC50 [2]: inconclusive

Structure (SMILES): CN1CCc2c(sc3c2c(=O)n(-c2ccccc2)c2nncn32)C1
- AC50 [2]: inconclusive

Structure (SMILES): O=C1CC(N2CCN(c3ccccn3)CC2)C(=O)N1CC(c1ccccc1)c1ccccc1 (stereo not given)
- EC50 [7]: 5.85 µM (active)

Structure (SMILES): CC(=O)Nc1cc(-c2cccc(F)c2)cn2c(-c3ccc(F)c(Cl)c3)cnc12
- EC50 [13]: > 89.2 µM (inactive)

Structure (SMILES): COc1ccc(-c2cc(NC(C)=O)c3ncc(-c4cccc(C(C)=O)c4)n3c2)cc1OC
- IC50 [14]: > 79 µM (inactive)
- EC50 [13]: > 89.2 µM (inactive)

Structure (SMILES): Cc1cc(C)nc(Nc2nc(C(N)Cc3ccc(Cl)cc3)cs2)n1 (stereo not given)
- EC50 [13]: > 89.2 µM (inactive)

Structure (SMILES): N=C(N)N/N=C/c1ccc2cccc(OCc3ccccc3)c2n1
- EC50 [15]: 0.685 µM (active)
- EC50 [16]: > 60 µM (not active)
- IC50 [17]: > 20 µM (inactive)
- IC50 [3]: > 66.6 µM (inactive)

Structure (SMILES): Sc1nnc(-c2ccccc2)n1/N=C/c1ccc(-c2ccccc2Cl)o1
- AC50 [18]: 4 µM (active)
- EC50 [19]: > 260 µM (inactive)
- IC50 [8]: 2.17 µM (active)

Structure (SMILES): O=C(N/N=C/C=C/c1ccccc1)c1cc2c(ccc3ccccc32)o1
- IC50 [11]: 9.73 µM (active)
- AC50 [12]: 0.0447 µM (inconclusive)

Structure (SMILES): C[C@]12CC[C@H](O)C[C@H]1CC[C@@H]1[C@@H]2CC[C@]2(C)[C@@H](C3=CC(=O)OC3)CC[C@]12O [DIGITOXIGENIN]
- AC50 [18]: 0.467 µM (active)
- IC50 [20]: > 80 µM (inactive)
- IC50 [8]: < 0.05 µM (active)
- CC50 [9]: 1.45 µM (active)
- AC50 [21]: 1.38 µM (active)

Structure (SMILES): C[C@]12CC[C@H]3C(=CCc4cc(O)ccc43)[C@@H]1CCC2=O [EQUILIN]
- CC50 [22]: 22.6 µM (active)
- IC50 [23]: 94.6 µM (active)
- AC50 [24]: 39.8 µM (inconclusive)

— ChEMBL document CHEMBL1201862, “PubChem BioAssay data set” (2004)
